Where two headings read alike, the source gives them in different places.
Experiments:
[1] = target: T1, m3 subtype (SK-N-SH cells) (Homo sapiens, UniProt P20309); experiment: PI hydrolysis in SK-N-SH neuroblastoma cells; assay type: cell-based
T1 construct: endogenous in cells; host or cells: SK-N-SH human neuroblastoma cells
Experimental: (§1) The new compounds AF150, AF151, AF150(S) and AF125 were assayed for their ability to stimulate PI in CHO cells transfected with m1 and m3 receptors, respectively (Buck and Fraser, loc cit), and in cultured human neuroblastoma cells, line SK-N-SH, which express mainly the m3 subtype, but not the m1 subtype (Pinkas-Kramarski et al, Neurosci. Lett. 188: 335-340, 1990; Luthin et al Mol. Pharmacol. 34: 327-333, 1988). These compounds were also assayed on cultured PC12 cells which express mainly m4 subtype receptors and are coupled to inhibition of AC activity (Pinkas-Kramarski et al, loc cit).
(§2) Stimulation of PI breakdown was assayed using the method described by Stein et al (EMBO J. 7: 3031-3035, 1988), and modulation of AC activity was assayed by the method of Stein et al, loc cit and Pinkas-Kramarski et al (FEBS Lett., 239: 174-178, 1988). […]

M1 muscarinic receptor [2] = target: T2, M1 muscarinic receptor (Rattus norvegicus, UniProt P08482); experiment: Displacement of 3H-PZ from rat cerebral cortex, 10 mM phosphate buffer; assay type: binding; design: from tissue; host or cells: rat cerebral cortex homogenates
T2 sequence (P08482 1-460): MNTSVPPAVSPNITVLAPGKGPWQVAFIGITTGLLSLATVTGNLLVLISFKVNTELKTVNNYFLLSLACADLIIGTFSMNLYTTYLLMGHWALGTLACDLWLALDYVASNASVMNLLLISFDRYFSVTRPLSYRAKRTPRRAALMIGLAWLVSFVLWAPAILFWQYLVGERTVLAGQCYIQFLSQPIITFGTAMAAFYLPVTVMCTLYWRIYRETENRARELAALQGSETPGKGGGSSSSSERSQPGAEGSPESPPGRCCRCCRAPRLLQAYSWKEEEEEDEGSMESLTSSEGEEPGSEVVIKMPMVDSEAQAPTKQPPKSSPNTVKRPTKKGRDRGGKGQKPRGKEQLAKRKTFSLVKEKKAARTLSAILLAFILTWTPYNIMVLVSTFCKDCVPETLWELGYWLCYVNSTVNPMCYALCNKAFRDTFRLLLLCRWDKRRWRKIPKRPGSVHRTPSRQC

M2 muscarinic receptors = target: T3, M2 muscarinic receptors (Rattus norvegicus, UniProt P10980); experiment: Displacement of 3H-QNB from rat cerebellum, 50 mM phosphate buffer; assay type: binding
T3 construct: displacing from rat brain homogenates, cerebellum or frontal cortex; from tissue; host or cells: rat cerebellum homogenates
T3 sequence (P10980 1-466): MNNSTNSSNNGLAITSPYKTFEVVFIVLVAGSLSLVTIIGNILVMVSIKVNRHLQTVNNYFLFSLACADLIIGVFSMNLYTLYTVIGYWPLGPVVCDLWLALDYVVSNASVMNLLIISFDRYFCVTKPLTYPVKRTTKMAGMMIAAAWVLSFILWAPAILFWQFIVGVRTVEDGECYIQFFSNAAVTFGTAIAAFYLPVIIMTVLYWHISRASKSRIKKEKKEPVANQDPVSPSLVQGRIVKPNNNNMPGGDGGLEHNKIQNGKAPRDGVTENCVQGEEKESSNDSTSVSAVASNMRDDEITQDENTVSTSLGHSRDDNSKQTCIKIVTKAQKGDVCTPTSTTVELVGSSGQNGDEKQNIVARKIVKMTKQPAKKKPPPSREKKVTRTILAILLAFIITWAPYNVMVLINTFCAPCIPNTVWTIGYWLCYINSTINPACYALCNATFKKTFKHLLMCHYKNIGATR

AF64A-treated rats = experiment: Morris water maze (MWM) in AF64A-treated rats; assay type: in vivo; conditions: i.p.
Experimental: This animal model, which mimics the cholinergic hypofunction and cognitive impairments in SDAT was used as described in Fisher et al (J. Pharmacol. Exptl. Therap, 1991, in the press).
Rats were injected with AF64A (3 nmole/2 µl./side, icv) or saline (2 µl., icv), in presence of phosphate buffer or AF151.

M1 muscarinic receptor [3] = target: T2, M1 muscarinic receptor; experiment: Potentiation of AC activity (basal and forskolin-stimulated cAMP) via m1 receptors; assay type: cell-based; design: expressed in transfected cells; host or cells: CHO cells
Text: Stimulation of m1 and m3 receptors elicit dose-dependent increases in the hydrolysis of phosphoinositides (PI). Agonist activation of the m1 receptor also elicits increases in basal and forskolin-stimulated cAMP, whereas the m3 receptor has no effect on intracellular cAMP levels (Buck and Fraser, Biochem. Biophys. Res. Comm. 173: 662-672, 1990). Stimulation of the m2 and m4 receptors by muscarinic agonists leads to preferential inhibition of adenylate cyclase (AC) activity (Mei et al, Life Sciences, 45: 1831-1851, 1989).

m3 receptors = m3 receptors (Rattus norvegicus, UniProt P08483); experiment: PI hydrolysis in CHO cells transfected with m3 receptors; assay type: cell-based; conditions: for effective concentration which induces the effect: CHO m3, PI hydrolysis, footnote b; for PI (phosphoinositides hydrolysis): CHO m3, tested at 1mM
m3 receptors, sequence (P08483 whole entry): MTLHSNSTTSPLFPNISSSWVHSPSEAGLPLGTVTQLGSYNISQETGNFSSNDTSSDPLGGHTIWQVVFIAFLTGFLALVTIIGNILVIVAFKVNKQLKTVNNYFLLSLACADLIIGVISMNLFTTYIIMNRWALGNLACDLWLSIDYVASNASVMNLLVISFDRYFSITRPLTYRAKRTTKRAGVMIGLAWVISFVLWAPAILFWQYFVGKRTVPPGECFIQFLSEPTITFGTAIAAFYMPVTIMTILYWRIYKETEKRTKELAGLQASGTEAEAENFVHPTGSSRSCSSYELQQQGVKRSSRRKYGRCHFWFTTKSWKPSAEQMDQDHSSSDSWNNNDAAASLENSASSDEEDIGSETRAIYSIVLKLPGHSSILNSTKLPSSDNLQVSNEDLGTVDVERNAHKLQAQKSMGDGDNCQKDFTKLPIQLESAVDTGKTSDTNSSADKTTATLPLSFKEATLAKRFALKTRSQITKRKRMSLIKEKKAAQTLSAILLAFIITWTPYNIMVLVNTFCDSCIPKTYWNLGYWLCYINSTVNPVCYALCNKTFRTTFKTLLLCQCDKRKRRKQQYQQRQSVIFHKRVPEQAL
Experimental: as §1, §2

[4] = cortex, Table 4, read-out: 3H-PZ-Binding KH (a)

T1 sequence (P20309 whole entry): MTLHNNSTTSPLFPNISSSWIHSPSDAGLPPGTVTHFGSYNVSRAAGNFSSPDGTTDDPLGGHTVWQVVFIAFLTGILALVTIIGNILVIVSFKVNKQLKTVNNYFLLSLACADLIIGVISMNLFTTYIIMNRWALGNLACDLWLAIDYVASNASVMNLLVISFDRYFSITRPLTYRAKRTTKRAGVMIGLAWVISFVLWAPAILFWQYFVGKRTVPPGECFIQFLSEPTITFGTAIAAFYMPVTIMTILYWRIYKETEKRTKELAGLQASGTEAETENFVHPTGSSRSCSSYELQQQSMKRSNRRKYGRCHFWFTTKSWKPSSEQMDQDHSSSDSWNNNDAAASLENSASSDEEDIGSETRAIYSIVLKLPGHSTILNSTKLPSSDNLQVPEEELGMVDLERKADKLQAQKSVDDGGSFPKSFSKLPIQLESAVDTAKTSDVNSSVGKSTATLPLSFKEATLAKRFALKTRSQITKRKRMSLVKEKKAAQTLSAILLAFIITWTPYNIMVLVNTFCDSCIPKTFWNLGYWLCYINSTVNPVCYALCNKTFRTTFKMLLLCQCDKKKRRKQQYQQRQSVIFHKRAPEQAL

## CC1=NCC2(CN3CCC2CC3)O1 (racemic) [AF125, 2-Methyl-spiro(1,3 oxazoline-5,3')quinuclidine]
[1]
  interference with the effect of carbachol: 10-20%
  stimulation of phosphoinositides hydrolysis relative to carbachol: 20-25%
[1]; SK-N-SH m3
  PI, % of carbachol effect: 20%
M1 muscarinic receptor [2]; [4]
  Ki: 4 µM
M2 muscarinic receptors; read-out: 3H-QNB-Binding KH2 (c), cerebellum, Table 5
  Ki: 3.8 µM
M2 muscarinic receptors; read-out: 3H-QNB-Binding KH (c), cerebellum, Table 4
  Ki: 3.8 µM

## CC1=NC2(CCN(C)CC2)CO1 [AF151, 1-methylpiperidine-4-spiro-4'-(2'-methyl-1',3'-oxazoline)]
AF64A-treated rats; icv AF64A, AF151 0.07 mg./kg., Block 1
  Path length: 729.0± 98.2 cm.
AF64A-treated rats; icv AF64A, AF151 0.07 mg./kg., Block 2
  Path length: 918.1±124.3 cm.
AF64A-treated rats; icv AF64A, AF151 0.07 mg./kg., Block 3
  Path length: 743.1±151.1 cm.
AF64A-treated rats; icv AF64A, AF151 0.07 mg./kg., Block 4
  Path length: 574.9±101.1 cm.
AF64A-treated rats; icv AF64A, AF151 0.07 mg./kg., Reversal
  Path length: 602.9± 97.9 cm.
AF64A-treated rats; icv AF64A, AF151 0.3 mg./kg., Block 1
  Path length: 862.3±151.0 cm.
AF64A-treated rats; icv AF64A, AF151 0.3 mg./kg., Block 2
  Path length: 843.5±197.5 cm.
AF64A-treated rats; icv AF64A, AF151 0.3 mg./kg., Block 3
  Path length: 539.9±146.2 cm.
AF64A-treated rats; icv AF64A, AF151 0.3 mg./kg., Block 4
  Path length: 297.9± 60.4 cm.
AF64A-treated rats; icv AF64A, AF151 0.3 mg./kg., Reversal
  Path length: 390.5± 77.0 cm.
AF64A-treated rats; icv AF64A, AF151 1.0 mg./kg., Block 1
  Path length: 656.6±107.6 cm.
AF64A-treated rats; icv AF64A, AF151 1.0 mg./kg., Block 2
  Path length: 802.7±111.1 cm.
AF64A-treated rats; icv AF64A, AF151 1.0 mg./kg., Block 3
  Path length: 795.0±131.3 cm.
AF64A-treated rats; icv AF64A, AF151 1.0 mg./kg., Block 4
  Path length: 434.4± 33.0 cm.
AF64A-treated rats; icv AF64A, AF151 1.0 mg./kg., Reversal
  Path length: 606.0± 60.0 cm.
AF64A-treated rats; icv Sal., AF151 0.07 mg./kg., Block 1
  Path length: 490.6± 74.0 cm.
AF64A-treated rats; icv Sal., AF151 0.07 mg./kg., Block 2
  Path length: 562.9± 92.7 cm.
AF64A-treated rats; icv Sal., AF151 0.07 mg./kg., Block 3
  Path length: 429.2± 76.5 cm.
AF64A-treated rats; icv Sal., AF151 0.07 mg./kg., Block 4
  Path length: 278.0± 44.0 cm.
AF64A-treated rats; icv Sal., AF151 0.07 mg./kg., Reversal
  Path length: 453.9± 76.0 cm.
AF64A-treated rats; icv Sal., AF151 0.3 mg./kg., Block 1
  Path length: 517.8± 45.3 cm.
AF64A-treated rats; icv Sal., AF151 0.3 mg./kg., Block 2
  Path length: 365.1± 58.4 cm.
AF64A-treated rats; icv Sal., AF151 0.3 mg./kg., Block 3
  Path length: 424.6± 92.3 cm.
AF64A-treated rats; icv Sal., AF151 0.3 mg./kg., Block 4
  Path length: 346.7± 64.4 cm.
AF64A-treated rats; icv Sal., AF151 0.3 mg./kg., Reversal
  Path length: 306.8± 43.3 cm.
AF64A-treated rats; icv Sal., AF151 1.0 mg./kg., Block 1
  Path length: 607.4± 90.6 cm.
AF64A-treated rats; icv Sal., AF151 1.0 mg./kg., Block 2
  Path length: 440.2± 90.1 cm.
AF64A-treated rats; icv Sal., AF151 1.0 mg./kg., Block 3
  Path length: 408.1± 97.1 cm.
AF64A-treated rats; icv Sal., AF151 1.0 mg./kg., Block 4
  Path length: 233.8± 30.6 cm.
AF64A-treated rats; icv Sal., AF151 1.0 mg./kg., Reversal
  Path length: 450.0± 93.5 cm.
M1 muscarinic receptor [3]
  increase in basal cAMP: 33%
  increase in forskolin-stimulated cAMP: 76%
m3 receptors
  effective concentration which induces the effect: 10^b µM
  PI (phosphoinositides hydrolysis): +

## CC1=NCC2(CCN(C)CC2)O1 [AF150, 2-Methyl-spiro(1,3-oxazoline-5,4')-1'-methylpiperidine]
[1]; SK-N-SH m3
  PI, % of carbachol effect: 40%
[1]; SK-N-SH m3, PI hydrolysis
  EC50: 3 µM
[1]; SK-N-SH m3, tested at 1mM
  PI (phosphoinositides hydrolysis): +
M1 muscarinic receptor [2]; KH cerebellum (3H-QNB) : KH cortex (3H-PZ)
  RATIOS c:a: 225
M1 muscarinic receptor [2]; KL : KH cortex (3H-PZ)
  RATIOS b:a: 900
M1 muscarinic receptor [2]; KL cerebellum (3H-QNB) : KL cortex (3H-PZ)
  RATIOS d:b: 4.4
M1 muscarinic receptor [2]; cortex, Table 4
  % H: 24%
  %L: 76%
M1 muscarinic receptor [2]; [4]
  Ki: 0.02 µM
M1 muscarinic receptor [2]; cortex, Table 4, read-out: 3H-PZ-Binding KL (b)
  Ki: 18 µM
M1 muscarinic receptor [3]
  increase in basal cAMP: 33%
  increase in forskolin-stimulated cAMP: 76%
m3 receptors
  effective concentration which induces the effect: 10^b µM
  PI (phosphoinositides hydrolysis): +
M2 muscarinic receptors; KL2 : KH2 cerebellum (3H-QNB)
  RATIOS d:c: 17
M2 muscarinic receptors; cerebellum, Table 4
  % H: 49%
  %L: 51%
M2 muscarinic receptors; cerebellum, Table 4, read-out: 3H-QNB-Binding KH (c)
  Ki: 4.5 µM
M2 muscarinic receptors; cerebellum, Table 4, read-out: 3H-QNB-Binding KL (d)
  Ki: 79 µM
M2 muscarinic receptors; cerebellum, Table 5
  % H2: 51%
  % L2: 49%
M2 muscarinic receptors; cerebellum, Table 5, read-out: 3H-QNB-Binding KH2 (c)
  Ki: 4.9 µM
M2 muscarinic receptors; cerebellum, Table 5, read-out: 3H-QNB-Binding KL2 (d)
  Ki: 83 µM

From patent publication EP0452101B1, “Spiro bridged and unbridged heterocyclic compounds” (ISRAEL INSTITUTE FOR BIOLOGICAL RESEARCH, priority 1990, dated 1991)
